According to ChEMBL document CHEMBL1157697, “Novel ester and acid derivatives of the 1,5-diarylpyrrole scaffold as anti-inflammatory and analgesic agents. Synthesis and in vitro and in vivo biological evaluation” (J Med Chem, 2010):
pIC50: −log10 of the molar value.

Assays:
[1] = Volume of distribution in Sprague-Dawley rat at 10 mg/kg, iv; assay type: ADME, organism-based; set-up: dose 10 mg/kg, route intravenous; conditions: in vivo
[2] = tested on: Rattus norvegicus; test: Rate of blood flow in Sprague-Dawley rat at 10 mg/kg, iv; assay type: ADME, organism-based; set-up: dose 10 mg/kg, route intravenous; conditions: in vivo
[3] = species on record: Mus musculus; test: Toxicity in Swiss mouse assessed as number of falls in 30 seconds after 30 mins by rotarod test; assay type: organism-based; conditions: in vivo, 0.5 h
[4] = Clearance in Sprague-Dawley rat at 10 mg/kg, iv; assay type: ADME, organism-based; set-up: dose 10 mg/kg, route intravenous; conditions: in vivo
[5] = biological target: T1, Prostaglandin G/H synthase 2 (Homo sapiens, UniProt P35354); test: Inhibition of COX2 in human whole blood assessed as inhibition of LPS-induced PGE2 production by RIA; assay type: tissue-based
T1 sequence (P35354 whole entry): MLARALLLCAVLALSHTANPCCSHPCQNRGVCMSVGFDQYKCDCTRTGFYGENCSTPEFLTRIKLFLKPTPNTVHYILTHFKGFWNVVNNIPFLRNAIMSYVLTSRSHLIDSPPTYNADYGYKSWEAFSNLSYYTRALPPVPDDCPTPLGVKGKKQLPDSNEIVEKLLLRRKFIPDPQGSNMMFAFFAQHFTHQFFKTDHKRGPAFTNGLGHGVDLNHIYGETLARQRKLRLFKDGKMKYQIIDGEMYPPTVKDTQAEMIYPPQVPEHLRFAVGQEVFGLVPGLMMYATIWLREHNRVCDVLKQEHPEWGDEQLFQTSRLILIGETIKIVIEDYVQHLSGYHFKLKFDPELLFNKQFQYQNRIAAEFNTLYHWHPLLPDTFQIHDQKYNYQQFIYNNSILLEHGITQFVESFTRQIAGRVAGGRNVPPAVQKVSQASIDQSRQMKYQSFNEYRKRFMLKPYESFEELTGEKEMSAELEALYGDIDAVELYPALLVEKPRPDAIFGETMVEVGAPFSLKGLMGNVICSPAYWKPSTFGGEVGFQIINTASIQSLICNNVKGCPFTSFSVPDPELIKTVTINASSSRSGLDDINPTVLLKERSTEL

[6] = tested on: Rattus norvegicus; test: Antiinflammatory activity against carrageenan-induced paw edema rat inflammatory model assessed as paw pressure at 10 mg/kg, po after 120 mins; assay type: functional
[7] = tested on: Rattus norvegicus; test: Antiinflammatory activity against carrageenan-induced paw edema rat inflammatory model assessed as paw pressure at 10 mg/kg, po after 30 mins; assay type: functional
[8] = biological target: T2, Prostaglandin G/H synthase 2 (Mus musculus, UniProt Q05769)
T2 sequence (Q05769 whole entry): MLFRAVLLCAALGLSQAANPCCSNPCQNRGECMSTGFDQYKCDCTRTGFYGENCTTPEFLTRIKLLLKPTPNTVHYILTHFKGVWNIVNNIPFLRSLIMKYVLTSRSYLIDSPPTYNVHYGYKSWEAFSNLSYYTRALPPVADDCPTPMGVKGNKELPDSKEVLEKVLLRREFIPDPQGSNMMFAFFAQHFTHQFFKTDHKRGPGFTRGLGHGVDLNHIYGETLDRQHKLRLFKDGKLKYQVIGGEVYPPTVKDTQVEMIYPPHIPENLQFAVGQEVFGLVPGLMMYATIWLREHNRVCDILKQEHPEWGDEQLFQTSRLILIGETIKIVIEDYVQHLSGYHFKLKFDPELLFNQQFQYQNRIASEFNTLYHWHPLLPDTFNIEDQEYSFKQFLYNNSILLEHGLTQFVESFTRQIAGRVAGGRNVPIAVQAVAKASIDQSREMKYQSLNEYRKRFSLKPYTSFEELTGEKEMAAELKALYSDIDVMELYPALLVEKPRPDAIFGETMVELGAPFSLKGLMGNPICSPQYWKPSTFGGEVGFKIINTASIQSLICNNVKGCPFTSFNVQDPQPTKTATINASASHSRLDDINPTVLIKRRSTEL
Description: Inhibition of COX2-dependent PGE2 production in LPS-stimulated mouse J774 cells by RIA

[9] = biological target: T3, Prostaglandin G/H synthase 1 (Mus musculus, UniProt P22437)
T3 sequence (P22437 whole entry): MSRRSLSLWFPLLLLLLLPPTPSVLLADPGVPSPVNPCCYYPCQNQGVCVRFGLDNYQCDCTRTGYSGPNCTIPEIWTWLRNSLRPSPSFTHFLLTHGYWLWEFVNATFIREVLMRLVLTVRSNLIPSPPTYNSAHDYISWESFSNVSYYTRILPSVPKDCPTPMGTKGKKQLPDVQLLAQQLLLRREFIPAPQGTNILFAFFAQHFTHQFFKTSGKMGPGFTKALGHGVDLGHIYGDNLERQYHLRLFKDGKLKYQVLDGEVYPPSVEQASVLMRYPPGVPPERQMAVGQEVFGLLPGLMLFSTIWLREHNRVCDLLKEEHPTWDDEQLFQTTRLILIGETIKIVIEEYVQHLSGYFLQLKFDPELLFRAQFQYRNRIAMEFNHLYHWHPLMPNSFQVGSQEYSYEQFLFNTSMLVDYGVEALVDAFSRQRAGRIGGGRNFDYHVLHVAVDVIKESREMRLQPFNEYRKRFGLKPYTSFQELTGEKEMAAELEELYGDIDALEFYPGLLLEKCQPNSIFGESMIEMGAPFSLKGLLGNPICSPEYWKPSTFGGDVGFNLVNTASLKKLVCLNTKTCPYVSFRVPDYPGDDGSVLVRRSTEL
Description: Inhibition of COX1-dependent PGE2 production in LPS-stimulated mouse J774 cells by RIA

[10] = species on record: Mus musculus; test: Toxicity in Swiss mouse assessed as number of falls in 30 seconds after 15 mins by rotarod test; assay type: organism-based; conditions: in vivo, 0.25 h
[11] = species on record: Mus musculus; test: Toxicity in Swiss mouse assessed as number of falls in 30 seconds after 60 mins by rotarod test; assay type: organism-based; conditions: in vivo, 1 h
[12] = Oral bioavailability in Sprague-Dawley rat at 10 mg/kg; assay type: ADME, organism-based; conditions: in vivo
[13] = biological target: Prostaglandin G/H synthase 1 (Homo sapiens, UniProt P23219); test: Inhibition of COX1 in human whole blood assessed as thromboxane B2 production by RIA; assay type: tissue-based
Chain of Prostaglandin G/H synthase 1 (Homo sapiens, UniProt P23219) (P23219 whole entry): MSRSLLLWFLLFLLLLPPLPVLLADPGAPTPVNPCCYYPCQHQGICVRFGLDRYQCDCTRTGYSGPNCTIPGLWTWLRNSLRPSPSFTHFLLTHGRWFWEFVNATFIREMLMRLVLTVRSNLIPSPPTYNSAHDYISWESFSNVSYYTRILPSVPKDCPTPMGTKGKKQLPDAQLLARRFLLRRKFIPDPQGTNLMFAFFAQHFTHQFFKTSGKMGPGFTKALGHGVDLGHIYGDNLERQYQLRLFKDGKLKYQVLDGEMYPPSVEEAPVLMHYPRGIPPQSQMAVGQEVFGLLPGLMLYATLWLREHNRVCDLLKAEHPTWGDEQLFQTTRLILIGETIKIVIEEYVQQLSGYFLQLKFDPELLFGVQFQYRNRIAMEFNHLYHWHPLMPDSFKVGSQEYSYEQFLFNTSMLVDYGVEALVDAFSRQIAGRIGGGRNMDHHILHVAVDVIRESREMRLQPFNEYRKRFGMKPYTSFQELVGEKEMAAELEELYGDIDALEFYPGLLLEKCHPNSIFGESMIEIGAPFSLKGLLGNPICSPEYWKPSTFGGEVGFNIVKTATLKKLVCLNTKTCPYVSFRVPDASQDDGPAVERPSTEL

[14] = species on record: Mus musculus; test: Toxicity in Swiss mouse assessed as number of falls in 30 seconds after 45 mins by rotarod test; assay type: organism-based; conditions: in vivo, 0.75 h
[15] = species on record: Rattus norvegicus; test: Analgesic activity against zymosan-induced hyperalgesia in rat assessed maximum effect measured up to 6 hrs
[16] = tested on: Rattus norvegicus; test: Antiinflammatory activity against carrageenan-induced paw edema rat inflammatory model assessed as paw volume at 10 mg/kg, po after 60 mins; assay type: functional
[17] = species on record: Rattus norvegicus; test: Analgesic activity against zymosan-induced hyperalgesia in rat assessed maximum effect measured up to 2 hrs
[18] = tested on: Mus musculus; test: Analgesic activity against acetic acid-induced po dosed mouse abdominal constriction assessed as writhing; conditions: Abdomen
[19] = Metabolic stability in human liver microsomes at 0.1 uM; assay type: ADME, Microsome; conditions: read-out: Stability
[20] = tested on: Rattus norvegicus; test: Antiinflammatory activity against carrageenan-induced paw edema rat inflammatory model assessed as suppression of paw edema at 10 mg/kg, po after 60 mins; assay type: functional
[21] = Metabolic stability in human liver microsomes at 10 uM; assay type: ADME, Microsome; conditions: read-out: Stability
[22] = tested on: Rattus norvegicus; test: Antiinflammatory activity against carrageenan-induced paw edema rat inflammatory model assessed as paw pressure at 10 mg/kg, po after 60 mins; assay type: functional

Cc1c(CC(=O)OC(C)C)cc(-c2ccc(S(C)(=O)=O)cc2)n1-c1ccccc1
Vd [1]: 5.6 L | LBF [2]: 0.8 L/h | Activity [3]: Non-toxic | clearance [4]: 33.3 mL/min | pIC50 [5]: 5.60 | Activity [6]: 48.8 g | Activity [7]: 56.2 g | pIC50 [8]: 8.14 | pIC50 [9]: < 4.00 | Activity [10]: Non-toxic | Activity [11]: Non-toxic | bioavailability [12]: 42% | pIC50 [13]: 4.70 | Activity [14]: Non-toxic | Activity [15]: 70% | Activity [16]: 1.26 mL | Activity [17]: 75% | Activity [18]: Dose-dependent effect | remaining at 0.1 µM [19]: 11% | Activity [20]: 100% | remaining at 10 µM [21]: 1% | Activity [22]: 51.8 g
